Literature values as cited in patent US10179134B2, “Polymeric nanoparticles in a thermosensitive gel for coital-independent vaginal prophylaxis of HIV” (Creighton University, priority 2012, dated 2019).

Tested on: HeLa cells

In the case of `O=C1Nc2ccc(Cl)cc2[C@@](C#CC2CC2)(C(F)(F)F)O1` [efavirenz], the “concentration above which toxic to the HeLa cells” value is listed as “higher than 25 μM”.
